Among the data in patent US20250026778A1 (TIUMBIO CO., LTD., priority 2021, published 2025) are inhibition values, retold here.

Each structure is given as a SMILES string.

The target in one test is T1, his-galectin-3 (Homo sapiens, UniProt P17931).
T1 construct: purchased Abcam
T1 sequence (P17931 whole entry): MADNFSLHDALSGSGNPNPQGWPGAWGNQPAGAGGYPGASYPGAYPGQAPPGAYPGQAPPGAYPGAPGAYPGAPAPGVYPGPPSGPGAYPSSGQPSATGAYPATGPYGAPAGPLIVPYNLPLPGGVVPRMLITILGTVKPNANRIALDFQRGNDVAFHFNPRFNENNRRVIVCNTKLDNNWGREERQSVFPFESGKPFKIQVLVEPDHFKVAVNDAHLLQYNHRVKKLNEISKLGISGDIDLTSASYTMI
As to the kind of experiment: TR-FRET assay (in vitro galectin-3 binding inhibitory activity test). The conditions noted are these: Table 2; compound at 20 μM; 60 nM his-galectin-3, 15 nM biotin-ASF; read-out: % Inhibitory activity (at 20 μM). The essentials: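 Compound is premixed with his-galectin-3 (60 nM final), then biotin-ASF (15 nM), Tb anti-His antibody (2 nM) and streptavidin-d2 (20 nM) are added. After at least 3.5 hours at RT in HEPES/NaCl buffer with Tween 20 and BSA, TR-FRET is read at 615/665 nm. DMSO serves as the uninhibited control, ASF omission as background.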
On the technique in general: TR-FRET usually uses a lanthanide donor and a delayed reading to cut background.
For the molecule `O=C(c1ccc2ccccc2c1)N1CCC[C@]2(C1)O[C@H](CO)[C@H](O)[C@H](n1cc(-c3cc(F)c(F)c(F)c3)nn1)[C@H]2O` [Compound A186, ((2R,3R,4S,5R,6R)-3,5-dihydroxy-2-(hydroxymethyl)-4-(4-(3,4,5-trifluorophenyl)-1H-1,2,3-triazol-1-yl)-1-oxa-8-azaspiro[5.5]undecan-8-yl)(naphthalen-2-yl)methanone], the inhibition at 20 µM is less than 25%.
On the same count and under the same terms, in the case of `O=C(c1cc2ccccc2s1)N1CCC[C@]2(C1)O[C@H](CO)[C@H](O)[C@H](n1cc(-c3cc(F)c(F)c(F)c3)nn1)[C@H]2O` [Compound A187, benzo[b]thiophen-2-yl((2R,3R,4S,5R,6R)-3,5-dihydroxy-2-(hydroxymethyl)-4-(4-(3,4,5-trifluorophenyl)-1H-1,2,3-triazol-1-yl)-1-oxa-8-azaspiro[5.5]undecan-8-yl)methanone] it was less than 25%.
Same read-out and setting: in the case of `O=C(c1ccccn1)N1CCC[C@]2(C1)O[C@H](CO)[C@H](O)[C@H](n1cc(-c3cc(F)c(F)c(F)c3)nn1)[C@H]2O` [Compound A188, ((2R,3R,4S,5R,6R)-3,5-dihydroxy-2-(hydroxymethyl)-4-(4-(3,4,5-trifluorophenyl)-1H-1,2,3-triazol-1-yl)-1-oxa-8-azaspiro[5.5]undecan-8-yl)(pyridin-2-yl)methanone] it was less than 25%; in that of `O=C(c1ccncc1)N1CCC[C@]2(C1)O[C@H](CO)[C@H](O)[C@H](n1cc(-c3cc(F)c(F)c(F)c3)nn1)[C@H]2O` [Compound A189, ((2R,3R,4S,5R,6R)-3,5-dihydroxy-2-(hydroxymethyl)-4-(4-(3,4,5-trifluorophenyl)-1H-1,2,3-triazol-1-yl)-1-oxa-8-azaspiro[5.5]undecan-8-yl)(pyridin-4-yl)methanone], less than 25%.
The same measure, in the same setting: next, `O=C(c1cncs1)N1CCC[C@]2(C1)O[C@H](CO)[C@H](O)[C@H](n1cc(-c3cc(F)c(F)c(F)c3)nn1)[C@H]2O` [Compound A190, ((2R,3R,4S,5R,6R)-3,5-dihydroxy-2-(hydroxymethyl)-4-(4-(3,4,5-trifluorophenyl)-1H-1,2,3-triazol-1-yl)-1-oxa-8-azaspiro[5.5]undecan-8-yl)(thiazol-5-yl)methanone]: less than 25%.
On to `OC[C@H]1O[C@@]2(CCCN(c3ccccc3)C2)[C@H](O)[C@@H](n2cc(-c3cc(F)c(F)c(F)c3)nn2)[C@H]1O` [Compound A191, (2R,3R,4S,5R,6R)-2-(hydroxymethyl)-8-phenyl-4-(4-(3,4,5-trifluorophenyl)-1H-1,2,3-triazol-1-yl)-1-oxa-8-azaspiro[5.5]undecane-3,5-diol], for which the inhibition at 20 µM was less than 25%.
For the molecule `O=C(N[C@@H]1CCO[C@]12O[C@H](CO)[C@H](O)[C@H](n1cc(-c3cc(F)c(F)c(F)c3)nn1)[C@H]2O)c1ccc2c(Br)cccc2c1` [Compound A192, 5-bromo-N-((4R,5S,7R,8R,9S,10R)-8,10-dihydroxy-7-(hydroxymethyl)-9-(4-(3,4,5-trifluorophenyl)-1H-1,2,3-triazol-1-yl)-1,6-dioxaspiro[4.5]decan-4-yl)-2-naphthamide], the inhibition at 20 µM lay in the range of 25 to 50%.
The same measure, in the same setting: next, `O=C(N[C@@H]1CCO[C@]12O[C@H](CO)[C@H](O)[C@H](n1cc(-c3cc(F)c(F)c(F)c3)nn1)[C@H]2O)c1ccc2ccccc2c1Br` [Compound A193, 1-bromo-N-((4R,5S,7R,8R,9S,10R)-8,10-dihydroxy-7-(hydroxymethyl)-9-(4-(3,4,5-trifluorophenyl)-1H-1,2,3-triazol-1-yl)-1,6-dioxaspiro[4.5]decan-4-yl)-2-naphthamide]: 50 to 75%; `O=C(N[C@@H]1CCO[C@]12O[C@H](CO)[C@H](O)[C@H](n1cc(-c3cc(F)c(F)c(F)c3)nn1)[C@H]2O)c1cccc2scnc12` [Compound A194, N-((4R,5S,7R,8R,9S,10R)-8,10-dihydroxy-7-(hydroxymethyl)-9-(4-(3,4,5-trifluorophenyl)-1H-1,2,3-triazol-1-yl)-1,6-dioxaspiro[4.5]decan-4-yl)benzo[d]thiazole-4-carboxamide]: 50 to 75%.
For `O=C(N[C@@H]1CCO[C@]12O[C@H](CO)[C@H](O)[C@H](n1cc(-c3cc(F)c(F)c(F)c3)nn1)[C@H]2O)c1ccc2c(Cl)cccc2c1` [Compound A195, 5-chloro-N-((4R,5S,7R,8R,9S,10R)-8,10-dihydroxy-7-(hydroxymethyl)-9-(4-(3,4,5-trifluorophenyl)-1H-1,2,3-triazol-1-yl)-1,6-dioxaspiro[4.5]decan-4-yl)-2-naphthamide], the inhibition at 20 µM is 25 to 50%.
Turning to `O=C(N[C@@H]1CCO[C@]12O[C@H](CO)[C@H](O)[C@H](n1cc(-c3cc(F)c(F)c(F)c3)nn1)[C@H]2O)c1ccc2sccc2c1` [Compound A196, N-((4R,5S,7R,8R,9S,10R)-8,10-dihydroxy-7-(hydroxymethyl)-9-(4-(3,4,5-trifluorophenyl)-1H-1,2,3-triazol-1-yl)-1,6-dioxaspiro[4.5]decan-4-yl)benzo[b]thiophene-5-carboxamide], the inhibition at 20 µM fell in the range of 50 to 75%.
Same read-out and setting: in the case of `O=C(N[C@@H]1CCO[C@]12O[C@H](CO)[C@H](O)[C@H](n1cc(-c3cc(F)c(F)c(F)c3)nn1)[C@H]2O)c1nsc2cc(Br)ccc12` [Compound A197, 6-bromo-N-((4R,5S,7R,8R,9S,10R)-8,10-dihydroxy-7-(hydroxymethyl)-9-(4-(3,4,5-trifluorophenyl)-1H-1,2,3-triazol-1-yl)-1,6-dioxaspiro[4.5]decan-4-yl)benzo[d]isothiazole-3-carboxamide] it was 50 to 75%; in that of `O=C(N[C@@H]1CCO[C@]12O[C@H](CO)[C@H](O)[C@H](n1cc(-c3cc(F)c(F)c(F)c3)nn1)[C@H]2O)c1cccc2sccc12` [Compound A198, N-((4R,5S,7R,8R,9S,10R)-8,10-dihydroxy-7-(hydroxymethyl)-9-(4-(3,4,5-trifluorophenyl)-1H-1,2,3-triazol-1-yl)-1,6-dioxaspiro[4.5]decan-4-yl)benzo[b]thiophene-4-carboxamide], more than 75%.
The same measure, in the same setting: next, `O=C(N[C@@H]1CCO[C@]12O[C@H](CO)[C@H](O)[C@H](n1cc(-c3cc(F)c(F)c(F)c3)nn1)[C@H]2O)c1noc2cc(Cl)ccc12` [Compound A199, 6-chloro-N-((4R,5S,7R,8R,9S,10R)-8,10-dihydroxy-7-(hydroxymethyl)-9-(4-(3,4,5-trifluorophenyl)-1H-1,2,3-triazol-1-yl)-1,6-dioxaspiro[4.5]decan-4-yl)benzo[d]isoxazole-3-carboxamide]: 25 to 50%; `O=C(N[C@@H]1CCO[C@]12O[C@H](CO)[C@H](O)[C@H](n1cc(-c3cc(F)c(F)c(F)c3)nn1)[C@H]2O)c1cnc2sccn12` [Compound A200, N-((4R,5S,7R,8R,9S,10R)-8,10-dihydroxy-7-(hydroxymethyl)-9-(4-(3,4,5-trifluorophenyl)-1H-1,2,3-triazol-1-yl)-1,6-dioxaspiro[4.5]decan-4-yl)imidazo[2,1-b]thiazole-5-carboxamide]: 50 to 75%.
`O=C(N[C@@H]1CCO[C@]12O[C@H](CO)[C@H](O)[C@H](n1cc(-c3cc(F)c(F)c(F)c3)nn1)[C@H]2O)c1cc2ccccc2cc1Cl` [Compound A201, 3-chloro-N-((4R,5S,7R,8R,9S,10R)-8,10-dihydroxy-7-(hydroxymethyl)-9-(4-(3,4,5-trifluorophenyl)-1H-1,2,3-triazol-1-yl)-1,6-dioxaspiro[4.5]decan-4-yl)-2-naphthamide]: the inhibition at 20 µM was more than 75%.

Staying with this test, now noted: Table 3, found values; compound at 20 μM; 60 nM his-galectin-3, 15 nM biotin-ASF; read-out: % Inhibitory activity (at 20 μM).
For the molecule `OC[C@H]1O[C@@]2(CCCN(c3ccccc3)C2)[C@H](O)[C@@H](n2cc(-c3cc(F)c(F)c(F)c3)nn2)[C@H]1O` [Compound A191, (2R,3R,4S,5R,6R)-2-(hydroxymethyl)-8-phenyl-4-(4-(3,4,5-trifluorophenyl)-1H-1,2,3-triazol-1-yl)-1-oxa-8-azaspiro[5.5]undecane-3,5-diol], the inhibition at 20 µM came out at 24%.
Same read-out and setting: in the case of `O=C(N[C@@H]1CCO[C@]12O[C@H](CO)[C@H](O)[C@H](n1cc(-c3cc(F)c(F)c(F)c3)nn1)[C@H]2O)c1cnc2sccn12` [Compound A200, N-((4R,5S,7R,8R,9S,10R)-8,10-dihydroxy-7-(hydroxymethyl)-9-(4-(3,4,5-trifluorophenyl)-1H-1,2,3-triazol-1-yl)-1,6-dioxaspiro[4.5]decan-4-yl)imidazo[2,1-b]thiazole-5-carboxamide] it was 63.3%.
